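Assay format: 96-well plates, 48-hour exposure. Here, GI50 denotes the concentration required for 50% inhibition of growth. TGI marks complete inhibition of growth.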
Columns and labels:
Test in all cases: NCI-60 cell line screen, 48 h
NCI/ADR-RES ovarian = system: NCI/ADR-RES ovarian
COLO 205 colon = system: COLO 205 colon
CAKI-1 renal = system: CAKI-1 renal
SNB-19 CNS = system: SNB-19 CNS
U251 CNS = system: U251 CNS
TK-10 renal = system: TK-10 renal
HT29 colon = system: HT29 colon
HL-60(TB) leukemia = system: HL-60(TB) leukemia
RXF 393 renal = system: RXF 393 renal
HOP-62 NSCLC = system: HOP-62 NSCLC

Structure (SMILES)	GI50 (NCI/ADR-RES ovarian)	TGI (NCI/ADR-RES ovarian)	GI50 (COLO 205 colon)	TGI (COLO 205 colon)	GI50 (CAKI-1 renal)	TGI (CAKI-1 renal)	GI50 (SNB-19 CNS)	TGI (SNB-19 CNS)	GI50 (U251 CNS)	TGI (U251 CNS)	GI50 (TK-10 renal)	TGI (TK-10 renal)	GI50 (HT29 colon)	TGI (HT29 colon)	GI50 (HL-60(TB) leukemia)	TGI (HL-60(TB) leukemia)	GI50 (RXF 393 renal)	TGI (RXF 393 renal)	GI50 (HOP-62 NSCLC)	TGI (HOP-62 NSCLC)
O=CC(OC(=O)c1ccccc1)C(OC(=O)c1ccccc1)C(COC(c1ccccc1)(c1ccccc1)c1ccccc1)OC(=O)c1ccccc1 (centres undefined)	19.3 µM	45.4 µM	11.8 µM	25.4 µM	25.1 µM	72.2 µM	15.3 µM	28.6 µM	7.51 µM	20.2 µM	20.4 µM	50.3 µM	11.7 µM	26.3 µM	3.25 µM	20.7 µM	4.11 µM	21.1 µM	18.3 µM	32.6 µM
Clc1ccc(-c2cc(-c3ccccc3)nc(N3CCN(CCCNc4ccnc5cc(Cl)ccc45)CC3)n2)cc1	1.75 µM	3.53 µM	1.87 µM	3.7 µM	1.66 µM	3.13 µM	–	–	1.29 µM	2.63 µM	1.75 µM	3.26 µM	0.464 µM	1.76 µM	1 µM	2.83 µM	1.25 µM	2.58 µM	1.2 µM	2.78 µM
Cc1cc(S(=O)(=O)/N=C(\N)Nc2cccc(O)c2)c(SCc2ccccc2)cc1Cl	26.5 µM	70.2 µM	28.8 µM	> 100 µM	16 µM	34.2 µM	20.6 µM	58.9 µM	18.9 µM	48.6 µM	21.2 µM	49.5 µM	20.6 µM	43.9 µM	12.9 µM	62.9 µM	16.2 µM	39.9 µM	15.1 µM	31.7 µM
C[C@@H]1CC[C@H]2[C@@H](C)C(O)O[C@@H]3O[C@]4(C)CC[C@@H]1[C@]32OO4 (some centres undefined)	0.581 µM	12 µM	0.718 µM	3 µM	0.758 µM	> 47.2 µM	3.39 µM	> 72.6 µM	0.532 µM	16.6 µM	0.854 µM	9.64 µM	0.634 µM	13.5 µM	0.176 µM	0.517 µM	1.15 µM	17.8 µM	2.99 µM	18.7 µM
CCOC(=O)/C(=C/CC/C(C)=C/CC/C(C)=C/CCc1ccoc1)CC(=O)N1CCCCC1	3.88 µM	23.7 µM	2.32 µM	6.05 µM	3.16 µM	38.3 µM	4.05 µM	41.3 µM	–	–	5.66 µM	75.5 µM	–	–	2.99 µM	7.4 µM	2.45 µM	9.62 µM	4.4 µM	19.8 µM
Cc1cccc2c(C3=C(c4cn(C)c5ccccc45)C(=O)NC3=O)cn(C)c12	> 19.6 µM	> 25 µM	> 16.9 µM	> 25 µM	> 19.1 µM	> 25 µM	> 25 µM	> 25 µM	> 25 µM	> 25 µM	> 25 µM	> 25 µM	> 13.8 µM	> 25 µM	> 25 µM	> 25 µM	6.16 µM	24.4 µM	13.4 µM	> 25 µM
